Results reported in patent US4933104A, “Anthraquinone derivative as a dichroic dye for a liquid-crystal material, liquid-crystal material and an electrooptical device” (priority 1986, dated 1990).
“And” between values parts separate entries of the source, which are not always exact repeats. Equal values may be shown once.

Columns and labels:
Type in all cases: physicochemical
[1] = limiting solubility in liquid-crystalline mixtures at 20° C.; conditions: for Solubility (limiting), known derivatives: Table 6, derivatives of SU 1089084; for solubility exceeds the solubility of the known analogue: ratio to known derivative, No. 2, 7 and 6 of Table 3 vs No. 1, 5 and 6 of Table 6
[2] = negative dichroism S in a liquid-crystalline mixture; conditions: liquid-crystalline mixture ZK-807
Protocol: (§1) Table 1 given below lists the values of negative dichroism of the anthraquinone derivative of general formula /1/ for examples 1-30 in a liquid-crystalline mixture ZK-807; Table 2 illustrates physico-chemical characteristics, and Table 3--limiting solubility in liquid-crystalline mixtures (ZK-807, ZLI-1840, 3010, SP-586, ZK-1282) at 20° C.

[3] = λmax of the long-wave absorption band of the dye; conditions: Table 1 / Examples; several values = several maxima
Protocol: as §1

| Compound | Solubility (limiting), known derivatives ([1]; ZK-807, 20° C.) [mass %] | Solubility (limiting), known derivatives ([1]; ZLI-1840, 20° C.) [mass %] | negative dichroism S [2] | λmax [3] | Solubility (limiting) ([1]; 3010, 20° C.) [mass %] | Solubility (limiting) ([1]; SP-586, 20° C.) [mass %] | Solubility (limiting) ([1]; ZK-807, 20° C.) [mass %] | Solubility (limiting) ([1]; ZK-1282, 20° C.) [mass %] | solubility exceeds the solubility of the known analogue [1] [times] | Solubility (limiting) ([1]; ZLI-1840, 20° C.) [mass %] |
| --- | --- | --- | --- | --- | --- | --- | --- | --- | --- | --- |
| CCCCCCCCc1ccc(-c2ccc(C(=O)Nc3ccc(NCCCC)c4c3C(=O)c3ccccc3C4=O)cc2)cc1 [No. 1, Table 6, reference compound] | 0.8 | 0.4 |  |  |  |  |  |  |  |  |
| CCCCc1ccc(C(=O)Nc2cc(CCCC)c(OC(=O)c3ccc(CCCC)cc3)c3c2C(=O)c2c(NC(=O)c4ccc(CCCC)cc4)cc(CCCC)c(OC(=O)c4ccc(CCCC)cc4)c2C3=O)cc1 [Compound 6, 1,8-Bis-(4-butylbenzamido)-4,5-bis-(4.butylbenzoyloxy)-3,6-dibutylanthraquinone] |  |  | -0.33 | 468 nm | 4.6 | 4.0 | 9.0 | 4.0 | 18 |  |
| CCCCCC1CCC(c2ccc(C(=O)Nc3cc(CCCC)c(OC(=O)C4CCC(CCCC)CC4)c4c3C(=O)c3c(NC(=O)c5ccc(C6CCC(CCCCC)CC6)cc5)cc(CCCC)c(OC(=O)C5CCC(CCCC)CC5)c3C4=O)cc2)CC1 (stereo not drawn) [Compound 9] |  |  | -0.38 | 475 nm | 9.0 |  | 9.0 |  |  | 7.7 |
| CCCCCC1CCC(c2ccc(C(=O)Nc3cc(CCCC)c(O)c4c3C(=O)c3c(NC(=O)c5ccc(C6CCC(CCCCC)CC6)cc5)cc(CCCC)c(OC(=O)c5ccc(C6CCC(CCCCC)CC6)cc5)c3C4=O)cc2)CC1 (stereo not drawn) [Compound 19] |  |  | -0.38 | 540 nm | 4.8 | 2.9 |  |  |  | 2.5 |
| CCCCCC1CCC(c2ccc(C(=O)Nc3cc(CCCC)c(O)c4c3C(=O)c3c(NC(=O)c5ccc(C6CCC(CCCCC)CC6)cc5)cc(CCCC)c(OC(=O)C5CCC(CCCC)CC5)c3C4=O)cc2)CC1 (stereo not drawn) [Compound 21] |  |  | -0.37 | 542 nm | 3.3 |  |  | 2.7 |  | 3.0 |
| CCCCc1ccc(C(=O)Nc2cc(CCCC)c(NC(=O)c3ccc(CCCC)cc3)c3c2C(=O)c2ccccc2C3=O)cc1 [Compound 2, 1,4-Bis(4-butylbenzamido)-2-butylanthraquinone] |  |  | -0.22 | 475 nm |  | 2.9 | 4.0 |  | 2.5 | 3.6 |
| CCCCc1ccc(C(=O)Nc2ccc(OC(=O)c3ccc(CCCC)cc3)c3c2C(=O)c2c(NC(=O)c4ccc(CCCC)cc4)cc(C)c(OC(=O)c4ccc(CCCC)cc4)c2C3=O)cc1 [Compound 3, 1,8Bis-(4-butylbenzamido)-4,5-bis-(4-butylbenzoyloxy)-3-methylanthraquinone] |  |  | -0.34 | 465 nm | 1.1 | 2.0 | 5.0 |  |  | 1.0 |
| CCCCC[C@H]1CC[C@H](c2ccc(C(=O)Nc3cc(CCCC)c(O)c4c3C(=O)c3c(NC(=O)c5ccc([C@H]6CC[C@H](CCCCC)CC6)cc5)cc(CCCC)c(O)c3C4=O)cc2)CC1 [Compound 29, 1,8-Bis-4-(trans-4-amylcyclohexyl)benzamido-3,6-dibutyl-4,5-dioxyanthraquinone] |  |  | -0.32 | 563 nm and 606 nm | 1.0 |  | 1.0 | 1.0 |  | 1.0 |
| CCCCC[C@H]1CC[C@H](c2ccc(C(=O)Nc3ccc(O)c4c3C(=O)c3c(NC(=O)c5ccc([C@H]6CC[C@H](CCCCC)CC6)cc5)cc(C)c(O)c3C4=O)cc2)CC1 [Compound 27, 1,8-Bis-4-(trans-4-amylcyclohexyl)benzamido-3-methyl-4,5-dioxyanthraquinone] |  |  | -0.33 | 562 nm and 603 nm | 1.0 |  | 1.0 | 1.0 |  | 1.0 |
| CCCCCc1cc(NC(=O)c2ccc(CCCC)cc2)c2c(c1O)C(=O)c1c(OC(=O)c3ccc(CCCC)cc3)c(CCCCC)cc(NC(=O)c3ccc(CCCC)cc3)c1C2=O [Compound 25] |  |  | -0.30 | 540 nm | 0.9 |  | 3.0 |  |  | 1.0 |
| CCCCCc1ccc(-c2ccc(C(=O)Nc3ccc(NCCCC)c4c3C(=O)c3ccccc3C4=O)cc2)cc1 [No. 2, Table 6, reference compound] | 0.9 | 0.5 |  |  |  |  |  |  |  |  |
| CCCCCCC1CCC(C(=O)Nc2ccc(OC(=O)C3CCC(CCCCCC)CC3)c3c2C(=O)c2c(NC(=O)C4CCC(CCCCCC)CC4)cc(C)c(OC(=O)C4CCC(CCCCCC)CC4)c2C3=O)CC1 (stereo not drawn) [Compound 5] |  |  | -0.37 | 461 nm | 1.0 |  | 3.0 |  |  |  |
| CCCCc1cc(NC(=O)c2ccc(C3CCC(CCCC)CC3)cc2)c2c(c1O)C(=O)c1c(OC(=O)CCC)c(CCCC)cc(NC(=O)c3ccc(C4CCC(CCCC)CC4)cc3)c1C2=O (stereo not drawn) [Compound 23] |  |  | -0.36 | 542 nm | 2.0 |  | 1.7 |  |  | 2.6 |
| CCCCc1cc(NC(=O)c2ccc(C3CCC(CCCC)CC3)cc2)c2c(c1O)C(=O)c1c(O)c(CCCC)cc(NC(=O)c3ccc(C4CCC(CCCC)CC4)cc3)c1C2=O (stereo not drawn) [Compound 30] |  |  | -0.34 | 566 nm and 608 nm |  |  |  |  |  |  |
| CCCCCCC1CCC(c2ccc(C(=O)Nc3cc(CCCC)c(O)c4c3C(=O)c3c(NC(=O)c5ccc(C6CCC(CCCCCC)CC6)nc5Cl)cc(CCCC)c(OC(=O)c5ccc(C6CCC(CCCCCC)CC6)nc5Cl)c3C4=O)c(Cl)n2)CC1 (stereo not drawn) [Compound 20] |  |  | -0.33 | 534 nm | 0.75 |  | 1.2 |  |  | 0.7 |
| CCCCCCCCNc1cc(CCCC)c(NC(=O)c2ccc(-c3ccc(CCCCCCCC)cc3)cc2)c2c1C(=O)c1ccccc1C2=O [Compound 1] |  |  |  |  |  |  | 2.0 |  |  |  |
| CCCCCCc1ccc(C(=O)Nc2cc(CCCC)c(OC(=O)c3ccc(CCCCCC)cc3)c3c2C(=O)c2c(NC(=O)c4ccc(CCCCCC)cc4)cc(CCCC)c(OC(=O)c4ccc(CCCCCC)cc4)c2C3=O)cc1 [Compound 7] |  |  | -0.26 | 434 nm and 455 nm |  |  | 5.0 |  | 10 |  |
| CCCCCC1CCC(c2ccc(C(=O)Nc3cc(CCCC)c(O)c4c3C(=O)c3c(OC(=O)c5ccc(C6CCC(CCCCC)CC6)cc5)c(CCCC)cc(NC(=O)c5ccc(C6CCC(CCCCC)CC6)cc5)c3C4=O)cc2)CC1 (stereo not drawn) [Compound 24] |  |  | -0.33 | 563 nm and 617 nm | 6.0 |  | 6.0 |  |  | 5.5 |
| CCCCCC1CCC(c2ccc(C(=O)Nc3cc(CCCC)c(OC(=O)c4ccc(C5CCC(CCCCC)CC5)cc4)c4c3C(=O)c3c(NC(=O)c5ccc(C6CCC(CCCCC)CC6)cc5)cc(CCCC)c(OC(=O)c5ccc(C6CCC(CCCCC)CC6)cc5)c3C4=O)cc2)CC1 (stereo not drawn) [Compound 8] |  |  | -0.38 | 466 nm | 2.6 |  | 11.0 | 1.8 |  | 5.7 |
| CCCCCC1CCC(c2ccc(C(=O)Nc3cc(CCCC)c(OC(=O)CCC)c4c3C(=O)c3c(NC(=O)c5ccc(C6CCC(CCCCC)CC6)cc5)cc(CCCC)c(OC(=O)CCC)c3C4=O)cc2)CC1 (stereo not drawn) [Compound 12] |  |  | -0.35 | 473 nm | 1.82 |  | 5.2 |  |  |  |
| CCCCCC1CCC(c2ccc(C(=O)Nc3ccc(OC(=O)c4ccc(C5CCC(CCCCC)CC5)cc4)c4c3C(=O)c3c(NC(=O)c5ccc(C6CCC(CCCCC)CC6)cc5)cc(C)c(OC(=O)c5ccc(C6CCC(CCCCC)CC6)cc5)c3C4=O)cc2)CC1 (stereo not drawn) [Compound 4] |  |  | -0.36 | 468 nm | 3.0 | 1.9 | 1.0 |  |  | 1.5 |
| CCCCCC1CCC(c2ccc(C(=O)Nc3ccc(O)c4c3C(=O)c3c(NC(=O)c5ccc(C6CCC(CCCCC)CC6)cc5)cc(CCCC)c(O)c3C4=O)cc2)CC1 (stereo not drawn) [Compound 28] |  |  | -0.32 | 564 nm and 605 nm | 1.1 | 0.8 | 0.6 | 1.0 |  | 1.0 |
| CCCCc1ccc(C(=O)Nc2cc(CCCC)c(O)c3c2C(=O)c2c(NC(=O)c4ccc(CCCC)cc4)cc(CCCC)c(OC(=O)c4ccc(CCCC)cc4)c2C3=O)cc1 [Compound 18, 1,8-bis-(4-butylbenzamido)-4-(4-butylbenzoyloxy)-3,6-dibutyl-5-oxyanthraquinone] |  |  | -0.31 | 534 nm | 0.7 |  | 2.7 |  |  |  |
